Literature values as cited in US20160330969A1, “ANTIMICROBIAL COMPOSITIONS AND ARTICLES” (priority 2013, published 2016).

Details: decomposition to chlorite and chlorate species, pH 5-8 region

For `OCl` [HOCl, hypochlorous acid], the “pH of maximum rate of decomposition” value is given as 6.89.
